{
  "source": "the NIST ThermoML archive (doi:10.1016/j.tca.2010.10.002)",
  "conditions": "Liquid, DSC",
  "note": "± gives the expanded uncertainty stated by the source.",
  "data": [
    {"molecule": "CCCCC/C=C\\C/C=C\\CCCCCCCC(=O)OCC", "note": "[ethyl linoleate]", "values": [
      {"measurement": "vapor or sublimation pressure", "setting": "537.69 K", "value": "9.333 ± 0.93", "unit": "kPa"}
    ]},
    {"molecule": "CCCCCCCCCCCCCC(=O)OC", "note": "[methyl tetradecanoate]", "values": [
      {"measurement": "vapor or sublimation pressure", "setting": "459.62 K", "value": "4 ± 0.4", "unit": "kPa"}
    ]},
    {"molecule": "CCCCCCCCCCCCCCCCCC(=O)OCC", "note": "[ethyl octadecanoate]", "values": [
      {"measurement": "vapor or sublimation pressure", "setting": "520.56 K", "value": "5.333 ± 0.53", "unit": "kPa"}
    ]},
    {"molecule": "CCCCCCCC/C=C\\CCCCCCCC(=O)OCC", "note": "[ethyl (Z)-9-octadeceneoate]", "values": [
      {"measurement": "vapor or sublimation pressure", "setting": "514.61 K", "value": "5.333 ± 0.53", "unit": "kPa"},
      {"measurement": "vapor or sublimation pressure", "setting": "536.83 K", "value": "9.333 ± 0.94", "unit": "kPa"}
    ]},
    {"molecule": "CCCCCCCCCCCCCCCC(=O)OC", "note": "[methyl hexadecanoate]", "values": [
      {"measurement": "vapor or sublimation pressure", "setting": "486.57 K", "value": "4 ± 0.4", "unit": "kPa"}
    ]},
    {"molecule": "CCCCCCCCCCCCCCCC(=O)OCC", "note": "[ethyl hexadecanoate]", "values": [
      {"measurement": "vapor or sublimation pressure", "setting": "502.27 K", "value": "5.333 ± 0.53", "unit": "kPa"},
      {"measurement": "vapor or sublimation pressure", "setting": "515.13 K", "value": "9.333 ± 0.93", "unit": "kPa"}
    ]}
  ]
}
